Results published in PMC5556108, “In vivo evaluation of radiotracers targeting the melanin-concentrating hormone receptor 1: [^11C]SNAP-7941 and [^18F]FE@SNAP reveal specific uptake in the ventricular system” (Scientific Reports, 2017).
Counter-ions that a name gives are not always drawn. Like-named read-outs stand apart in the source and are kept apart here.

What was measured:
[1] = target: T1, hMCHR1 (Homo sapiens, UniProt Q99705); assay: Competitive binding studies: displacement of specific [125I]MCH binding on CHO-K1 cell membranes; details: for binding cooperativity (from Hill slope factor) / Hill slope factor: displacement of [125I]MCH; for binding cooperativity (from Hill slope factor): CHO-K1 cell membranes expressing hMCHR1
T1 construct: purchased PerkinElmer, Inc., Waltham, USA; host or cells: CHO-K1 cell membranes
T1 sequence (Q99705 whole entry): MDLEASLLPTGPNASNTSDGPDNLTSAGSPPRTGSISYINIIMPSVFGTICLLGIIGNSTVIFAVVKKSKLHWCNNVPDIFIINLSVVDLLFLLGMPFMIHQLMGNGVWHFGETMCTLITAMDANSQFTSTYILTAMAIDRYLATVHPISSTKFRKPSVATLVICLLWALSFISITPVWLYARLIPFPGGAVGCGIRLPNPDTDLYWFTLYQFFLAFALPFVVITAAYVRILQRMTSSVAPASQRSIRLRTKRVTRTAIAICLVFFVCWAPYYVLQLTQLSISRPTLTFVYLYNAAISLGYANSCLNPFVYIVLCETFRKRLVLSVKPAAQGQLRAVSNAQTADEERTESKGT
Procedure: Competitive binding studies were conducted on CHO-K1 cell membranes expressing the hMCHR1 (PerkinElmer, Inc., Waltham, USA). Briefly, cell membranes (10 µg/mL) were dissolved in 500 µL 50 mM Tris buffer (pH 7.4) (containing 10 mM MgCl2, 2 mM EDTA, 0.1% bacitracin and 0.2% BSA). […] All non-labelled compounds were initially dissolved in DMSO and diluted with deionized water to the final concentration, where the amount of DMSO never exceeded 5%. The membranes were incubated in vials at room temperature for 120 min. Subsequently, bound and free fractions of radioligand were separated by centrifugation at 40 000 × g for 20 min. The supernatants were removed into new vials and pellets were washed twice with 800 µL ice cold Tris buffer. The pellets were finally dissolved in 1300 µL Tris buffer and the radioactivity of both, the supernatant and the pellet, was measured in a Gamma Counter (2480 WIZARD[2], PerkinElmer, Waltham, MA, USA). The half-maximum inhibitory concentration (IC50) was determined using GraphPad Prism 6.0 (GraphPad Software, Inc., San Diego, CA, USA) and converted into the Ki using the Cheng Prusoff equation[38].

[2] = tested on: P-glycoprotein (P-gp) and Breast Cancer Resistance Protein (BCRP); set-up: method as in PMID 23829932; details: due to binding to P-gp and BCRP; cited from earlier work
[3] = target: T2, MCHR1 (Rattus norvegicus, UniProt P97639); assay: Ex-vivo brain uptake measured in the Gamma Counter; details: mean ± SEM
T2 construct: Small-animal PET/MRI brain scans in healthy rats evinced high radiotracer uptake in the entire ventricular system; from tissue; host or cells: brain (whole brain, ventricular system) of male Sprague-Dawley rats, in vivo / ex vivo
T2 sequence (P97639 whole entry): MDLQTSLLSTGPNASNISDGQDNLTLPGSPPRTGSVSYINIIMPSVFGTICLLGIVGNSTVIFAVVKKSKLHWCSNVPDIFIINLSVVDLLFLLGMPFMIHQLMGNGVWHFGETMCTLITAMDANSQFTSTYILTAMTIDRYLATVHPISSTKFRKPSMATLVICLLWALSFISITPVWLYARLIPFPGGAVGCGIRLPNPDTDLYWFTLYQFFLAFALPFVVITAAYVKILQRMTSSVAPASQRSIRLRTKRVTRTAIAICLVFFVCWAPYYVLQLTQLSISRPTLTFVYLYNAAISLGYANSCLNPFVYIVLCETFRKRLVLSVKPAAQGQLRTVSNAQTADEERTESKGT
Procedure: (§1) Anaesthetized rats were immobilized in a multimodal animal carrier unit (MACU; medres® – medical research GmbH, Cologne, Germany) and maintained at a body temperature of 37 °C throughout the whole experiment. Animals received either [^11C]SNAP-7941 or [^18F]FE@SNAP, followed by an injection of (±)-SNAP-7941 (15 mg/kg body weight, freshly dissolved in 400 µL; displacement condition; n = 3) or 400 µL of the respective solvent (vehicle condition; n = 3). The MCHR1 antagonists and the vehicle were administered either 15 min ([^11C]SNAP-7941) or 20 min ([^18F]FE@SNAP) after radiotracer injection as a bolus via the lateral tail vein. A stereotactic holder attached to the MACU was used to fix the head of the animals in a reliable and reproducible position within the whole imaging study. Experiments were initiated with a 7 minute cone beam attenuation CT (CBCT) of the brain (360 projections; binning 4 × 4; 80 kV; 500 µA; 200 ms exposure time) using a small-animal CT scanner (Siemens Inveon microSPECT/CT, Siemens Medical Solutions, Knoxville, USA). Subsequently the animals were positioned in the imaging chamber of a Siemens Inveon microPET scanner (Siemens Medical Solution, Knoxville, USA). [^11C]SNAP-7941 (75.85 ± 5.80 MBq; molar activity: 33.12 ± 25.73 GBq/µmol; radiochemical purity: >99%) or [^18F]FE@SNAP (44.12 ± 4.41 MBq; molar activity: 22.18 ± 9.72 GBq/µmol; radiochemical purity: >90%) was injected (200–800 µL) via the lateral tail vein and dynamic PET imaging was performed 45 min for the [^11C]-labeled radiotracer and 60 min for the [^18F]-labeled ligand. Immediately afterwards, T1-weighted high-resolution axial, coronary and sagittal brain MRI scans (2D FLASH; echo time: 3.85 ms; repetition time: 282 ms; flip angle: 30°; field of view: 35 × 35 mm; resolution: 68 × 68 µm; slice thickness: 0.4 mm) were performed using a Bruker BioSpec 94/30 USR small-animal MR system (Bruker BioSpin GmbH, Karlsruhe, Germany). At the end of the imaging study animals were sacrificed under anesthesia through an intravenous injection of pentobarbital sodium (Release® 300 mg/mL, WDT, Garbsen, Germany), brains were removed, weighed and subjected to radioactivity measurements in a Gamma Counter (2480 WIZARD[2], PerkinElmer, Waltham, MA, USA). Values were normalized to weight and dose and expressed as the percentage injected dose per gram of tissue (%ID/g).

[4] = target: T2, MCHR1; assay: Small-animal PET/CT/MRI brain imaging, radiotracer uptake (SUV) under baseline and displacement conditions; assay type: in vivo
Procedure: Twelve-weeks old male Sprague-Dawley rats (HIM:OFA, Himberg, Austria) weighing 389 ± 86 g were kept under controlled environmental conditions (22 ± 1 °C; 40–70% humidity; 12 hours light/dark cycle) with free access to water and standard laboratory animal diet (sniff R/M-H, sniff Spezialdiaeten GmbH, Soest, Germany). Prior to each experiment, the animals were placed into an induction chamber and anesthetized with 2.5% isoflurane. When unconscious, the animals were taken from the chamber and kept under anesthesia with 1.5–2.5% isoflurane provided via a mask during the whole experiment. Physiological parameters and the depth of anesthesia were monitored continuously. Administration of radioligands and MCHR1 antagonists were performed intravenously via the lateral tail vein. All procedures and protocols using animals have been approved by the Institutional Animal Care and Use Committee of the Medical University of Vienna, Austria, as well as by the Austrian Ministry of Science, Research and Economy (BMWFW-66.009/0029-WF/V/3b/2015). Every effort was made to minimize both, the suffering and the number of animals. All experimental procedures and protocols used in this study were performed in accordance with the relevant guidelines and regulations.
as §1
CT raw data was reconstructed with a Feldkamp algorithm using a Shepp-Logan filter followed by standard rat beam-hardening correction and noise reduction (matrix size: 1024 × 1024; effective pixel size: 97.56 µm). […]

[5] = set-up: method as in PMID 24106662; details: cited from earlier work
[6] = displacement of 0.1 nM [125I]MCH, CHO-K1 cell membranes expressing hMCHR1, Cheng Prusoff, mean ± SEM
[7] = displacement of 0.1 nM [125I]MCH, CHO-K1 cell membranes expressing hMCHR1, mean ± SEM, three independent experiments
[8] = CHO-K1 cell membranes expressing hMCHR1, mean ± SEM
[9] = group with displacement via (±)-SNAP-7941 (15 mg/kg)
[10] = i.v. tracer, before displacement, group displaced with 15 mg/kg (±)-SNAP-7941, mean ± SEM
[11] = i.v. tracer, before displacement, group displaced with vehicle, mean ± SEM
[12] = male, Sprague-Dawley, in vivo, iv
[13] = male, Sprague-Dawley, in vivo, iv, 15 mg/kg

Ki [1, 6] [nM]	IC50 [1, 7] [nM]	binding cooperativity (from Hill slope factor) [1]	Hill slope factor [1, 8]	IC50 [1] [nM]	Ki [1] [nM]	SMILES	blood-brain-barrier penetration [2]	Ex-vivo brain uptake, normalized value [3, 9] [%ID/g]	Ex-vivo brain uptake, normalized value ([3]; vehicle group) [%ID/g]	SUVbw whole brain, baseline [4, 10] [g/mL]	SUVbw ventricular system, baseline [4, 11] [g/mL]	SUVbw whole brain, baseline [4, 11] [g/mL]	SUVbw ventricular system, baseline [4, 12] [g/mL]	SUVbw ventricular system, displacement [4, 12] [g/mL]	SUVbw whole brain, displacement [4, 12] [g/mL]	SUVbw ventricular system, displacement [4, 13] [g/mL]	SUVbw whole brain, displacement [4, 13] [g/mL]	metabolism [5]
3.91 ± 0.74	5.61 ± 1.06	no binding cooperativity	2.66 ± 0.39			COCC1=C(C(=O)OC)[C@H](c2ccc(F)c(F)c2)N(C(=O)NCCCN2CCC(c3cccc(NC(C)=O)c3)CC2)C(=O)N1 (racemic) [(±)-SNAP-7941]												
						COCC1=C(C(=O)O[11CH3])[C@H](c2ccc(F)c(F)c2)N(C(=O)NCCCN2CCC(c3cccc(NC(C)=O)c3)CC2)C(=O)N1 [[^11C]SNAP-7941]	limited blood-brain-barrier penetration	0.015 ± 0.002	0.023 ± 0.002	0.41 ± 0.03	0.65 ± 0.04	0.35 ± 0.03	0.64 ± 0.08	0.71 ± 0.04	0.34 ± 0.02	0.32 ± 0.04	0.31 ± 0.03	
		strong positive cooperativity	8.89 ± 1.59	7.7 ± 0.35	5.37 ± 0.25	COCC1=C(C(=O)OC)[C@H](c2ccc(F)c(F)c2)N(C(=O)NCCCN2CCC(c3cccc(NC(C)=O)c3)CC2)C(=O)N1 [(+)-SNAP-7941, (+)-methyl(4 S)-3-{[(3-{4-[3-(acetylamino)phenyl]-1piperidinyl}propyl)amino]carbonyl}-4-(3,4-difluorophenyl)-6-(methoxymethyl)-2-oxo-1,2,3,4-tetra-hydro-5-pyrimidenecarboxylate hydrochloride]												
						COCC1=C(C(=O)OCC[18F])[C@H](c2ccc(F)c(F)c2)N(C(=O)NCCCN2CCC(c3cccc(NC(C)=O)c3)CC2)C(=O)N1 [[^18F]FE@SNAP]		0.018 ± 0.003	0.020 ± 0.001	0.41 ± 0.01	0.72 ± 0.01	0.43 ± 0.02	0.69 ± 0.06	0.73 ± 0.02	0.44 ± 0.02	0.50 ± 0.04	0.41 ± 0.02	fast metabolism
9.98 ± 1.12	14.3 ± 1.61	no binding cooperativity	1.30 ± 0.33			COCC1=C(C(=O)OCCF)[C@H](c2ccc(F)c(F)c2)N(C(=O)NCCCN2CCC(c3cccc(NC(C)=O)c3)CC2)C(=O)N1 [FE@SNAP, (+)-(2-Fluoroethyl)(4 S)-3-{[(3-{4-[3-(acetylamino)phenyl]-1-piperidinyl}propyl)amin]carbonyl}-4-(3,4-difluorophenyl)-6-(methoxymethyl)-2-oxo-1,2,3,4-tetra-hydro-5-pyrimidenecarboxylate]												
